Reference: patent publication US20230118795A1, “ARYL OR HETEROARYL PYRIDONE OR PYRIMIDINE DERIVATIVE, PREPARATION METHOD AND USE THEREOF” (SUZHOU ZELGEN BIOPHARMACEUTICALS CO., LTD., priority 2020, published 2023)
pIC50: −log10 of the molar value.

Test system: NCI-H358 (KRAS^G12C mutation) cell
Experiment: Cell assay of antiproliferative activity against NCI-H358 cell (Celltiter-Glo, 5 days)
Assay type: cell-based
Settings: 5 days incubation
Protocol: Cell Assay of Antiproliferative Activity of Compounds Against NCI-H358 (KRAS^G12C Mutation) Cell.
40 μL phosphate buffer was added to the outer wells of the 384 microplate, and 40 μL cell suspension to be tested was added to the other wells. Then the microplate was incubated in a carbon dioxide incubator overnight.
The compounds to be tested were gradiently diluted, each compound was performed 10 concentration gradients (diluted from 50 μM to 0.003 μM) and added 100 nL to the corresponding wells in the microplate. After addition, 40 μl of phosphate buffer was added to each well in rows A and P and columns 1 and 24, and then the microplate was incubated in a carbon dioxide incubator for 5 days.
20 μL of Promega Celltiter-Glo reagent was added to each well of the microplate, and then the luminescence signal was stabilized by oscillating at room temperature for 10 min. Then PekinElmer Envision multi-label analyzer was used to read.
Finally, GraphPad Prism software was used to calculate the IC50 value of the compound and the fitting curve was drawn.
Anti-proliferative activity of the compounds of the present invention against NCI-H358 (KRAS^G12C mutation) cell was shown in Table 1.

SMILES | pIC50
C=CC(=O)N1CCN(c2nc(=O)n(-c3c(CC)cccc3S(C)(=O)=O)c3nc(-c4c(O)cccc4F)c(F)cc23)[C@@H](C)C1 (single isomer, unassigned) [Example 5B] | 7.96
C=CC(=O)N1CCN(c2nc(=O)n(-c3c(C4CC4)cccc3S(C)(=O)=O)c3nc(-c4c(O)cccc4F)c(F)cc23)[C@@H](C)C1 (single isomer, unassigned) [Example 6A] | 6.70
C=CC(=O)N1CCN(c2nc(=O)n(-c3c(C4CC4)cccc3S(C)(=O)=O)c3nc(-c4c(O)cccc4F)c(F)cc23)[C@@H](C)C1 (single isomer, unassigned) [Example 6B] | 7.82
C=CC(=O)N1CCN(c2nc(=O)n(-c3c(C(C)C)cccc3S(C)(=O)=O)c3nc(-c4c(O)cccc4F)c(F)cc23)[C@@H](C)C1 (single isomer, unassigned) [Example 10A] | 6.55
C=CC(=O)N1CCN(c2nc(=O)n(-c3c(C(C)C)ccnc3S(C)(=O)=O)c3nc(-c4c(O)cccc4F)c(F)cc23)[C@@H](C)C1 (single isomer, unassigned) [Example 16A] | 6.14
C=CC(=O)N1CCN(c2nc(=O)n(-c3c(S(C)(=O)=O)ccnc3C(C)C)c3nc(-c4c(O)cccc4F)c(F)cc23)[C@@H](C)C1 (single isomer, unassigned) [Example 18B] | 6.34
C=CC(=O)N1CCN(c2nc(=O)n(-c3c(C(C)C)ccnc3S(C)(=O)=O)c3nc(-c4ccccc4Cl)c(F)cc23)[C@@H](C)C1 (single isomer, unassigned) [Example 20A] | 5.82
C=CC(=O)N1CCN(c2nc(=O)n(-c3c(C(C)C)ccnc3S(C)(=O)=O)c3nc(-c4ccccc4Cl)c(F)cc23)[C@@H](C)C1 (single isomer, unassigned) [Example 20B] | 7.89
C=CC(=O)N1CCN(c2nc(=O)n(-c3c(CC)cccc3S(C)(=O)=O)c3nc(-c4c(O)cccc4F)c(F)cc23)[C@@H](C)C1 [Example 5, 4-((S)-4-acrylo-2-methylpiperazin-1-yl)-1-(2-ethyl-6-(methylsulfonyl)phenyl)-6-fluoro-7-(2-fluoro-6-hydroxyphenyl) pyridino[2,3-d] pyrimidin-2(1H)-one] | 7.55
C=CC(=O)N1CCN(c2nc(=O)n(-c3c(CC)cccc3S(C)(=O)=O)c3nc(-c4c(O)cccc4F)c(F)cc23)[C@@H](C)C1 [Example 5A] | 6.64

Now from value to molecule:

pIC50 | SMILES
6.46 | C=CC(=O)N1CCN(c2nc(=O)n(-c3c(C4CCC4)cccc3S(C)(=O)=O)c3nc(-c4c(O)cccc4F)c(F)cc23)[C@@H](C)C1 (single isomer, unassigned) [Example 25A]
8.22 | C=CC(=O)N1CCN(c2nc(=O)n(-c3c(C4CCC4)cccc3S(C)(=O)=O)c3nc(-c4c(O)cccc4F)c(F)cc23)[C@@H](C)C1 (single isomer, unassigned) [Example 25B]
6.13 | C=CC(=O)N1CCN(c2nc(=O)n(-c3c(C(C)C)cccc3S(C)(=O)=O)c3nc(-c4ccccc4Cl)c(F)cc23)[C@@H](C)C1 (single isomer, unassigned) [Example 30A]
7.96 | C=CC(=O)N1CCN(c2nc(=O)n(-c3c(C(C)C)cccc3S(C)(=O)=O)c3nc(-c4ccccc4Cl)c(F)cc23)[C@@H](C)C1 (single isomer, unassigned) [Example 30B]
6.52 | C=CC(=O)N1CCN(c2nc(=O)n(-c3c(C(C)C)cccc3S(C)(=O)=O)c3nc(-c4c(F)cccc4OC(C)=O)c(F)cc23)[C@@H](C)C1 (single isomer, unassigned) [Example 31A]
8.22 | C=CC(=O)N1CCN(c2nc(=O)n(-c3c(C(C)C)cccc3S(C)(=O)=O)c3nc(-c4c(F)cccc4OC(C)=O)c(F)cc23)[C@@H](C)C1 (single isomer, unassigned) [Example 31B]
7.18 | C=CC(=O)N1CCN(c2nc(=O)n(-c3c(C)cccc3S(C)(=O)=O)c3nc(-c4c(O)cccc4F)c(F)cc23)[C@@H](C)C1 (single isomer, unassigned) [Example 53B]
8.05 | C=CC(=O)N1C[C@H](C)N(c2nc(=O)n(-c3c(C4CC4)cccc3S(C)(=O)=O)c3nc(-c4c(O)cccc4F)c(F)cc23)C[C@H]1C (single isomer, unassigned) [Example 81B]
7.30 | C=CC(=O)N1C[C@H](C)N(c2nc(=O)n(-c3c(CC)cccc3S(=O)(=O)C(C)C)c3nc(-c4c(O)cccc4F)c(F)cc23)C[C@H]1C (single isomer, unassigned) [Example 82B]
7.59 | C=CC(=O)N1CCN(c2nc(=O)n(-c3c(CC)cccc3S(=O)(=O)C(C)C)c3nc(-c4c(O)cccc4F)c(F)cc23)[C@@H](C)C1 (single isomer, unassigned) [Example 83B]
8.22 | C=CC(=O)N1C[C@H](C)N(c2nc(=O)n(-c3c(CC)cccc3S(C)(=O)=O)c3nc(-c4c(O)cccc4F)c(Cl)cc23)C[C@H]1C (single isomer, unassigned) [Example 84B]
> 7.52 | C=CC(=O)N1CCN(c2nc(=O)n(-c3c(C)cccc3S(C)(=O)=O)c3nc(-c4c(O)cccc4F)c(F)cc23)[C@@H](C)C1 (single isomer, unassigned) [Example 87A]
> 7.00 | C=CC(=O)N1CCN(c2nc(=O)n(-c3c(C)cccc3S(C)(=O)=O)c3nc(-c4c(O)cccc4F)c(F)cc23)[C@@H](C)C1 (single isomer, unassigned) [Example 87B]

Same assay, conditions: Homo sapiens, NCI-H358, 120 h, 5 days incubation

pIC50 | SMILES
7.05 | C=CC(=O)N1CCN(c2nc(=O)n(-c3c(C)ccnc3S(C)(=O)=O)c3nc(-c4c(O)cccc4F)c(F)cc23)[C@@H](C)C1 [Example 1, 4-((S)-4-acryloyl-2-methylpiperazin-1-yl)-6-fluoro-7-(2-fluoro-6-hydroxyphenyl)-1-(4-methyl-2-(methylsulfonyl)pyridin-3-yl) pyridino [2,3-d] pyrimidin-2 (1H)-one]
6.27 | C=CC(=O)N1CCN(c2nc(=O)n(-c3c(S(C)(=O)=O)ccnc3C)c3nc(-c4c(O)cccc4F)c(F)cc23)[C@@H](C)C1 [Example 2, 4-((S)-4-acryloyl-2-methylpiperazin-1-yl)-6-fluoro-7-(2-fluoro-6-hydroxyphenyl)-1-(2-methyl-4-(methylsulfonyl)pyridin-3-yl) pyridino [2,3-d] pyrimidin-2 (1H)-one]
6.06 | C=CC(=O)N1CCN(c2nc(=O)n(-c3c(C)cccc3S(C)(=O)=O)c3nc(-c4c(O)cccc4F)c(F)cc23)[C@@H](CC#N)C1 [Example 3, 2-((2S)-4-acryloyl-1-(6-fluoro-7-(2-fluoro-6-hydroxyphenyl)-1-(2-methyl-6-(methylsulfonyl)phenyl)-2-oxo-1,2-dihydropyridino[2,3-d]pyrimidin-4-yl)piperazin-2-yl) acetonitrile]
6.38 | C=CC(=O)N1CCN(c2nc(=O)n(-c3c(C)cccc3S(=O)(=O)C(C)C)c3nc(-c4c(O)cccc4F)c(F)cc23)[C@@H](C)C1 [Example 4, 4-((S)-4-acryloyl-2-methylpiperazin-1-yl)-6-fluoro-7-(2-fluoro-6-hydroxyphenyl)-1-(2-(isopropylsulfonyl)-6-methylphenyl) pyridino[2,3-d] pyrimidin-2(1H)-one]
7.55 | C=CC(=O)N1CCN(c2nc(=O)n(-c3c(C4CC4)cccc3S(C)(=O)=O)c3nc(-c4c(O)cccc4F)c(F)cc23)[C@@H](C)C1 [Example 6, 4-((S)-4-acryloyl-2-methylpiperazin-1-yl)-1-(2-cyclopropyl-6-(methylsulfonyl)phenyl)-6-fluoro-7-(2-fluoro-6-hydroxyphenyl) pyridino [2,3-d] pyrimidin-2(1H)-one]
6.62 | C=CC(=O)N1CCN(c2nc(=O)n(-c3c(C)cccc3S(=O)(=O)C3CC3)c3nc(-c4c(O)cccc4F)c(F)cc23)[C@@H](C)C1 [Example 7, 4-((S)-4-acryloyl-2-methylpiperazin-1-yl)-1-(2-(cyclopropylsulfonyl)-6-methylphenyl)-6-fluoro-7-(2-fluoro-6-hydroxyphenyl) pyridino [2,3-d] pyrimidin-2(1H)-one]
6.77 | C=CC(=O)N1CCN(c2nc(=O)n(-c3c(Cl)cccc3S(C)(=O)=O)c3nc(-c4c(O)cccc4F)c(F)cc23)[C@@H](C)C1 [Example 8, 4-((S)-4-acryloyl-2-methylpiperazin-1-yl)-1-(2-chloro-6-(methylsulfonyl)phenyl)-6-fluoro-7-(2-fluoro-6-hydroxyphenyl) pyridino [2,3-d] pyrimidin-2 (1H)-one]
6.64 | C=CC(=O)N1CCN(c2nc(=O)n(-c3c(C)cccc3S(C)(=O)=O)c3nc(-c4c(F)cccc4C(F)F)c(F)cc23)[C@@H](C)C1 [Example 9, 4-((S)-4-acryloyl-2-methylpiperazin-1-yl)-7-(2-(difluoromethyl)-6-fluorophenyl)-6-fluoro-1-(2-methyl-6-(methylsulfonyl)phenyl) pyridino [2,3-d] pyrimidin-2 (1H)-one]
8.00 | C=CC(=O)N1CCN(c2nc(=O)n(-c3c(C(C)C)cccc3S(C)(=O)=O)c3nc(-c4c(O)cccc4F)c(F)cc23)[C@@H](C)C1 [Example 10, 4-((S)-4-acryloyl-2-methylpiperazin-1-yl)-6-fluoro-7-(2-fluoro-6-hydroxyphenyl)-1-(2-isopropyl-6-(methylsulfonyl)phenyl) pyridino[2,3-d] pyrimidin-2(1H)-one]
6.74 | C=CC(=O)N1CCN(c2nc(=O)n(-c3c(C)cccc3N(C)S(C)(=O)=O)c3nc(-c4c(O)cccc4F)c(F)cc23)[C@@H](C)C1 [Example 11]
